Assay results published in patent US20230027361A1, “METTL3 MODULATORS” (priority 2019, published 2023).

Each molecule was assayed against METTL3/METTL14 (Homo sapiens, UniProt Q86U44) (assay: METTL3-14 Standard Enzyme Assay (METTL3 biochemical assay)). Settings: METTL3 biochemical assay; read-out: METTL3 IC50.
Description: Assays were performed in a 25 μl-volume in 384-well V-bottom polypropylene microplates (Greiner Bio-One, cat. No. 781280) at ambient temperature. Optimized 1× assay buffer was 20 mM HEPES pH 7.5, 50 mM KCl, 250 μM MgCl2, 1 mM DTT, 0.01% Tween, 0.01% BSG, 0.004 U/μl RNAseOUT (cat. No. 10777019, ThermoFisher Scientific, Waltham, Mass.). For compound screening METTL3/METTL14 (final concentration, f.c.=2.5 nM) was added using a Multidrop Combi (ThermoFisher Scientific, Waltham, Mass.) and preincubated for 5 min. Reactions were started by adding 3′ biotinylated RNA ([…]-biotin) (f.c.=100 nM) and 3H-SAM (f.c.=100 nM) substrates. Reactions proceeded for 30 minutes and were quenched with excess non-radioactive SAM (f.c.=15 μM). The reactions were then transferred to streptavidin-coated flashplates and incubated for 2 hours at 25° C. Following two washing cycles with 0.1% Tween-20, the plates were sealed and read on a TopCount (PerkinElmer, Waltham, Mass.) plate-based scintillation counter. For determination of kinetic parameters, reaction times were optimized so that measurements were taken during the initial velocity phase of the reaction.

Sequence of METTL3/METTL14 (Q86U44 whole entry, species assumed): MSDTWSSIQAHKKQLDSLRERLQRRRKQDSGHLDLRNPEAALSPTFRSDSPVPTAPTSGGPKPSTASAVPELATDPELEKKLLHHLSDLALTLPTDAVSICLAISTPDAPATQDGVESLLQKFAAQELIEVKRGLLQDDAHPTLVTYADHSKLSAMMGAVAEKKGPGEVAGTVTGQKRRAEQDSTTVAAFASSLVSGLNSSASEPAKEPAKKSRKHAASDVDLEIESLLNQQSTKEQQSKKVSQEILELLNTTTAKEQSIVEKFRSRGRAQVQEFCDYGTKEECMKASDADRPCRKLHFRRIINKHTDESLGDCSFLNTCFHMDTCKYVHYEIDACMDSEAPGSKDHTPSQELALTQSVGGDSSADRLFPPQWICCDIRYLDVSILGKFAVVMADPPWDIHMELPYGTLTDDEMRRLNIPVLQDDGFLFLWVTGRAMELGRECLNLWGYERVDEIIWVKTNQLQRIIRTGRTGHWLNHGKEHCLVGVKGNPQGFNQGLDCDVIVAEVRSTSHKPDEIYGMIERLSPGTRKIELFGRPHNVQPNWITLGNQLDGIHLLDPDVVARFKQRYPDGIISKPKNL
Sequence of METTL3/METTL14 (Q9HCE5 whole entry partner, species assumed): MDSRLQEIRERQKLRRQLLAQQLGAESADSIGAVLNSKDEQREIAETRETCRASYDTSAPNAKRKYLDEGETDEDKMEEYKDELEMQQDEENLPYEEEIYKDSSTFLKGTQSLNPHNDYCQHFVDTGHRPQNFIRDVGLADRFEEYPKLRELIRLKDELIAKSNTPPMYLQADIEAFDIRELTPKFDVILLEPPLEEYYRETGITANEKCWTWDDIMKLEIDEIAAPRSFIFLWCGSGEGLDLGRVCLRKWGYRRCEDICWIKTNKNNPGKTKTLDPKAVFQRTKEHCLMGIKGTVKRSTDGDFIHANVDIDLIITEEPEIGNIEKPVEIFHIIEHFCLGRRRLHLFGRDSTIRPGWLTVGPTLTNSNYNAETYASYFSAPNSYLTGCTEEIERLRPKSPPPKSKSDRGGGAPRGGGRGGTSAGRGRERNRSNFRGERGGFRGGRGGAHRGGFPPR

| SMILES | IC50 |
| --- | --- |
| CNc1ccc2ccc(OC[C@H]3O[C@@H](n4cc(C5CCC(F)(F)CC5)c5c(N)ncnc54)[C@H](O)[C@@H]3O)cc2n1 [I-4] | < 10 nM |
| Cc1cn([C@@H]2O[C@H](COc3ccc4ccc(N)nc4c3)[C@@H](O)[C@H]2O)c2ncnc(N)c12 [I-15] | > 1000 nM |
| Cc1cn([C@@H]2O[C@H](COc3ccc4ccc(NCC5CC5)nc4c3)[C@@H](O)[C@H]2O)c2ncnc(N)c12 [I-20] | > 1000 nM |
| CNc1ccc2ccc(OC[C@H]3O[C@@H](n4cc(C)c5c(N)ncnc54)[C@H](O)[C@@H]3O)cc2n1 [I-22] | > 1000 nM |
| CNc1ccc2ccc(OC[C@H]3O[C@@H](n4cc(Br)c5c(N)ncnc54)C[C@@H]3O)cc2n1 [I-47] | < 10 nM |
| Nc1ccc2ccc(CC[C@H]3C[C@@H](n4cc([C@@H]5CCOC5)c5c(N)ncnc54)[C@H](O)[C@@H]3O)cc2n1 [I-49] | 100 to 1000 nM |
| Nc1ccc2ccc(CC[C@H]3C[C@@H](n4cc([C@H]5CCOC5)c5c(N)ncnc54)[C@H](O)[C@@H]3O)cc2n1 [I-53] | 100 to 1000 nM |
| Cc1cc2c(N)ncnc2n1[C@@H]1C[C@H](COc2ccc3ccc(N)nc3c2)[C@@H](O)[C@H]1O [I-56] | > 1000 nM |
| Cc1cc2c(N)ncnc2n1[C@@H]1C[C@H](CCc2ccc3nc(N)ccc3c2)[C@@H](O)[C@H]1O [I-57] | > 1000 nM |
| CNc1ccc2ccc(CC[C@H]3C[C@@H](n4cc(C5CCOCC5)c5c(N)ncnc54)[C@H](O)[C@@H]3O)cc2n1 [I-58] | 10 to 100 nM |
| Cc1cc2c(NCCc3ccccc3)ncnc2n1[C@@H]1C[C@H](CCc2ccc3ccc(N)nc3c2)[C@@H](O)[C@H]1O [I-61] | > 1000 nM |
| CCCc1cn([C@@H]2C[C@H](CCc3ccc4ccc(N)nc4c3)[C@@H](O)[C@H]2O)c2ncnc(N)c12 [I-62] | 100 to 1000 nM |
| CNc1ccc2cc(CC[C@H]3C[C@@H](n4cc(C)c5c(N)ncnc54)[C@H](O)[C@@H]3O)ccc2n1 [I-64] | 100 to 1000 nM |
| Cc1cc2c(N)ncnc2n1[C@@H]1C[C@H](CCc2ccc3ccc(N)nc3c2)[C@@H](O)[C@H]1O [I-65] | > 1000 nM |
| CNc1ccc2ccc(OC[C@H]3O[C@@H](n4cnc5c(N)ncnc54)[C@H](O)[C@@H]3O)cc2n1 [I-76] | 10 to 100 nM |
| Nc1ncnc2c1ccn2[C@@H]1O[C@H](COc2ccc3ccc(N4CCOCC4)nc3c2)[C@@H](O)[C@H]1O [I-77] | 10 to 100 nM |
| Nc1ccc2ccc(OC[C@H]3O[C@H](n4ccc5c(N)ncnc54)[C@H](O)[C@@H]3O)cc2n1 [I-79] | > 1000 nM |
| Nc1ccc2ccc(OC[C@H]3O[C@@H](n4ccc5c(N)ncnc54)[C@H](O)[C@@H]3O)cc2n1 [I-80] | 10 to 100 nM |
| Nc1ncnc2c1ccn2[C@@H]1C[C@H](CCc2ccc3c(OCC4CC4)ccnc3c2)[C@@H](O)[C@H]1O [I-85] | > 1000 nM |

What follows are molecules tested against METTL1/WDR4 (Homo sapiens, UniProt Q9UBP6) (assay: METTL1 Assay (METTL1 biochemical assay)). Settings: read-out: METTL1 IC50; METTL1 biochemical assay.
Sequence of METTL1/WDR4 (Q9UBP6 whole entry, species assumed): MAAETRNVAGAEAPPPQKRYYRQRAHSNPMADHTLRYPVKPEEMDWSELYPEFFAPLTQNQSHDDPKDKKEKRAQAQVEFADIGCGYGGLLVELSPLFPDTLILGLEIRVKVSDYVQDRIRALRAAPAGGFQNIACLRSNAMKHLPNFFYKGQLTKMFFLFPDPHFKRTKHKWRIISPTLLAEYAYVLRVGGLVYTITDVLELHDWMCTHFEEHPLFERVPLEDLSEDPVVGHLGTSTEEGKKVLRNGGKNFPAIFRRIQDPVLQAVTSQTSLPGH
Sequence of METTL1/WDR4 (P57081 whole entry partner, species assumed): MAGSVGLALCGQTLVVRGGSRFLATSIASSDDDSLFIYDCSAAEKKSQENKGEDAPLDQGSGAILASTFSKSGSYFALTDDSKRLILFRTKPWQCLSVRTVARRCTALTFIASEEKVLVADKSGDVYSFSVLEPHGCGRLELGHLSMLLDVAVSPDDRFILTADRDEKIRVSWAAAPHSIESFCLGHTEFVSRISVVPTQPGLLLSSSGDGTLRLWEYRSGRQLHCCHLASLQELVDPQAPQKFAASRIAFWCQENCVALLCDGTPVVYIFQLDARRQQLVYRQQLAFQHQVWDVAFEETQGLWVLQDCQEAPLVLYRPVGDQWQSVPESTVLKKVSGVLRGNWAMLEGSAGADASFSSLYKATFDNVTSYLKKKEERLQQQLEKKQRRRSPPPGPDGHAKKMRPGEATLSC
Description: Assays were performed in a 25 μl-volume in 384-well V-bottom polypropylene microplates (Greiner Bio-One, cat. No. 781280) at ambient temperature. Optimized 1× assay buffer was 20 mM HEPES pH 7.5, 50 mM KCl, 250 μM MgCl2, 1 mM DTT, 0.01% Tween, 0.01% BSG, 0.004 U/μl RNAseOUT (cat. No. 10777019, ThermoFisher Scientific, Waltham, Mass.). For compound screening METTL1/WDR4 (final concentration, f.c.=6.25 nM) was added using a Multidrop Combi (ThermoFisher Scientific, Waltham, Mass.) and preincubated for 5 min. Reactions were started by adding 3′ biotinylated RNA ([…]-biotin) (f.c.=25 nM) and 3H-SAM (f.c.=60 nM) substrates. Reactions proceeded for 20 minutes and were quenched with excess non-radioactive SAM (f.c.=15 μM). The reactions were then transferred to streptavidin-coated flashplates and incubated for 2 hours at 25° C. Following two washing cycles with 0.1% Tween-20, the plates were sealed and read on a TopCount (PerkinElmer, Waltham, Mass.) plate-based scintillation counter. For determination of kinetic parameters, reaction times were optimized so that measurements were taken during the initial velocity phase of the reaction.

| SMILES | IC50 |
| --- | --- |
| CNc1ccc2ccc(OC[C@H]3O[C@@H](n4cc(C5CCC(F)(F)CC5)c5c(N)ncnc54)[C@H](O)[C@@H]3O)cc2n1 [I-4] | > 1000 nM |
| Cc1cn([C@@H]2O[C@H](COc3ccc4ccc(N)nc4c3)[C@@H](O)[C@H]2O)c2ncnc(N)c12 [I-15] | > 1000 nM |
| Cc1cn([C@@H]2O[C@H](COc3ccc4ccc(NCC5CC5)nc4c3)[C@@H](O)[C@H]2O)c2ncnc(N)c12 [I-20] | > 1000 nM |
| CNc1ccc2ccc(OC[C@H]3O[C@@H](n4cc(C)c5c(N)ncnc54)[C@H](O)[C@@H]3O)cc2n1 [I-22] | > 1000 nM |
| CNc1ccc2ccc(OC[C@H]3O[C@@H](n4cc(Br)c5c(N)ncnc54)C[C@@H]3O)cc2n1 [I-47] | > 1000 nM |
| Nc1ccc2ccc(CC[C@H]3C[C@@H](n4cc([C@@H]5CCOC5)c5c(N)ncnc54)[C@H](O)[C@@H]3O)cc2n1 [I-49] | > 1000 nM |
| Nc1ccc2ccc(CC[C@H]3C[C@@H](n4cc([C@H]5CCOC5)c5c(N)ncnc54)[C@H](O)[C@@H]3O)cc2n1 [I-53] | > 1000 nM |
| Cc1cc2c(N)ncnc2n1[C@@H]1C[C@H](COc2ccc3ccc(N)nc3c2)[C@@H](O)[C@H]1O [I-56] | > 1000 nM |
| Cc1cc2c(N)ncnc2n1[C@@H]1C[C@H](CCc2ccc3nc(N)ccc3c2)[C@@H](O)[C@H]1O [I-57] | > 1000 nM |
| CNc1ccc2ccc(CC[C@H]3C[C@@H](n4cc(C5CCOCC5)c5c(N)ncnc54)[C@H](O)[C@@H]3O)cc2n1 [I-58] | > 1000 nM |
| Cc1cc2c(NCCc3ccccc3)ncnc2n1[C@@H]1C[C@H](CCc2ccc3ccc(N)nc3c2)[C@@H](O)[C@H]1O [I-61] | > 1000 nM |
| CCCc1cn([C@@H]2C[C@H](CCc3ccc4ccc(N)nc4c3)[C@@H](O)[C@H]2O)c2ncnc(N)c12 [I-62] | > 1000 nM |
| CNc1ccc2cc(CC[C@H]3C[C@@H](n4cc(C)c5c(N)ncnc54)[C@H](O)[C@@H]3O)ccc2n1 [I-64] | > 1000 nM |
| Cc1cc2c(N)ncnc2n1[C@@H]1C[C@H](CCc2ccc3ccc(N)nc3c2)[C@@H](O)[C@H]1O [I-65] | > 1000 nM |
| CNc1ccc2ccc(OC[C@H]3O[C@@H](n4cnc5c(N)ncnc54)[C@H](O)[C@@H]3O)cc2n1 [I-76] | > 1000 nM |
| Nc1ncnc2c1ccn2[C@@H]1O[C@H](COc2ccc3ccc(N4CCOCC4)nc3c2)[C@@H](O)[C@H]1O [I-77] | > 1000 nM |
| Nc1ccc2ccc(OC[C@H]3O[C@H](n4ccc5c(N)ncnc54)[C@H](O)[C@@H]3O)cc2n1 [I-79] | > 1000 nM |
| Nc1ccc2ccc(OC[C@H]3O[C@@H](n4ccc5c(N)ncnc54)[C@H](O)[C@@H]3O)cc2n1 [I-80] | > 1000 nM |
| Nc1ncnc2c1ccn2[C@@H]1C[C@H](CCc2ccc3c(OCC4CC4)ccnc3c2)[C@@H](O)[C@H]1O [I-85] | > 1000 nM |

Each molecule was assayed against PRMT5-MEP50 (Homo sapiens, UniProt O14744) (assay: PRMT5 Assay (PRMT5 biochemical assay)). Settings: PRMT5 biochemical assay; read-out: PRMT5 IC50.
Sequence of PRMT5-MEP50 (O14744 whole entry): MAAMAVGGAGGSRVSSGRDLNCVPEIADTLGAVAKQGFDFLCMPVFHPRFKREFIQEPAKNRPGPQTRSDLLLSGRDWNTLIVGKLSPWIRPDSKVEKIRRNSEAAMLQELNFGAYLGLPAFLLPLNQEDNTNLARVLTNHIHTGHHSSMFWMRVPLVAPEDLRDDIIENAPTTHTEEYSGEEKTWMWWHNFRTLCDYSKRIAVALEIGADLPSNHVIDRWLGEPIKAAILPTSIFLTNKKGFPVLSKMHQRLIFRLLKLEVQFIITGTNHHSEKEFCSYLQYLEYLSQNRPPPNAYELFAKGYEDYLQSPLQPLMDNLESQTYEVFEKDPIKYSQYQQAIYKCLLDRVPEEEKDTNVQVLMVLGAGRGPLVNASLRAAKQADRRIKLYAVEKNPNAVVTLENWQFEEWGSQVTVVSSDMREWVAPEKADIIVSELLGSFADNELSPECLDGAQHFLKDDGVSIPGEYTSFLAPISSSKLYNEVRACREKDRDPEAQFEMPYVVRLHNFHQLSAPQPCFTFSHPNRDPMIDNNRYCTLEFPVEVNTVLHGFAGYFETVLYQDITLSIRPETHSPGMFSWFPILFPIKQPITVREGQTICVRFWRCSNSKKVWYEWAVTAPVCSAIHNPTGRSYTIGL
Sequence of PRMT5-MEP50 (Q9BQA1 whole entry partner): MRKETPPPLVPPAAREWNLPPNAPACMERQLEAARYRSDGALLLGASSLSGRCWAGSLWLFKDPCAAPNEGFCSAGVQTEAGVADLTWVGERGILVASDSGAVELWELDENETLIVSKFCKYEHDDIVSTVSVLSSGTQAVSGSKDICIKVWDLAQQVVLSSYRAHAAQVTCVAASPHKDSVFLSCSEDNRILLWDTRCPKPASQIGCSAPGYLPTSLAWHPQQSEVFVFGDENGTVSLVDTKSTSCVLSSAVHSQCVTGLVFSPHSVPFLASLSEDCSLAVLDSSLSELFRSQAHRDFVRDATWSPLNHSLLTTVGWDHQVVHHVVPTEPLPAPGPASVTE
Description: Assays were performed in a 25 μl-volume in 384-well V-bottom polypropylene microplates (Greiner Bio-One, cat. No. 781280) at ambient temperature. Optimized 1× assay buffer was 20 mM Tris-HCl pH 8.0, 1 mM DTT, […]. For compound screening PRMT5-MEP50 (final concentration, f.c.=2.5 nM) was added using a Multidrop Combi (ThermoFisher Scientific, Waltham, Mass.) and preincubated for 5 min. Reactions were started by adding 3′ biotinylated histone H4 peptide acetylated on serine 1 (Ac-[…]-Biotin) (f.c.=100 nM) and 3H-SAM (f.c.=250 nM) substrates. Reactions proceeded for 60 minutes and were quenched with excess non-radioactive SAM (f.c.=15 μM). The reactions were then transferred to streptavidin-coated flashplates and incubated for 2 hours at 25° C. Following two washing cycles with 0.1% Tween-20, the plates were sealed and read on a TopCount (PerkinElmer, Waltham, Mass.) plate-based scintillation counter. For determination of kinetic parameters, reaction times were optimized so that measurements were taken during the initial velocity phase of the reaction.

| SMILES | IC50 |
| --- | --- |
| CNc1ccc2ccc(OC[C@H]3O[C@@H](n4cc(C5CCC(F)(F)CC5)c5c(N)ncnc54)[C@H](O)[C@@H]3O)cc2n1 [I-4] | 10 to 100 nM |
| Cc1cn([C@@H]2O[C@H](COc3ccc4ccc(N)nc4c3)[C@@H](O)[C@H]2O)c2ncnc(N)c12 [I-15] | 100 to 1000 nM |
| Cc1cn([C@@H]2O[C@H](COc3ccc4ccc(NCC5CC5)nc4c3)[C@@H](O)[C@H]2O)c2ncnc(N)c12 [I-20] | 100 to 1000 nM |
| CNc1ccc2ccc(OC[C@H]3O[C@@H](n4cc(C)c5c(N)ncnc54)[C@H](O)[C@@H]3O)cc2n1 [I-22] | 100 to 1000 nM |
| CNc1ccc2ccc(OC[C@H]3O[C@@H](n4cc(Br)c5c(N)ncnc54)C[C@@H]3O)cc2n1 [I-47] | 100 to 1000 nM |
| Nc1ccc2ccc(CC[C@H]3C[C@@H](n4cc([C@@H]5CCOC5)c5c(N)ncnc54)[C@H](O)[C@@H]3O)cc2n1 [I-49] | < 10 nM |
| Nc1ccc2ccc(CC[C@H]3C[C@@H](n4cc([C@H]5CCOC5)c5c(N)ncnc54)[C@H](O)[C@@H]3O)cc2n1 [I-53] | < 10 nM |
| Cc1cc2c(N)ncnc2n1[C@@H]1C[C@H](COc2ccc3ccc(N)nc3c2)[C@@H](O)[C@H]1O [I-56] | < 10 nM |
| Cc1cc2c(N)ncnc2n1[C@@H]1C[C@H](CCc2ccc3nc(N)ccc3c2)[C@@H](O)[C@H]1O [I-57] | 10 to 100 nM |
| CNc1ccc2ccc(CC[C@H]3C[C@@H](n4cc(C5CCOCC5)c5c(N)ncnc54)[C@H](O)[C@@H]3O)cc2n1 [I-58] | < 10 nM |
| Cc1cc2c(NCCc3ccccc3)ncnc2n1[C@@H]1C[C@H](CCc2ccc3ccc(N)nc3c2)[C@@H](O)[C@H]1O [I-61] | < 10 nM |
| CCCc1cn([C@@H]2C[C@H](CCc3ccc4ccc(N)nc4c3)[C@@H](O)[C@H]2O)c2ncnc(N)c12 [I-62] | < 10 nM |
| CNc1ccc2cc(CC[C@H]3C[C@@H](n4cc(C)c5c(N)ncnc54)[C@H](O)[C@@H]3O)ccc2n1 [I-64] | 10 to 100 nM |
| Cc1cc2c(N)ncnc2n1[C@@H]1C[C@H](CCc2ccc3ccc(N)nc3c2)[C@@H](O)[C@H]1O [I-65] | < 10 nM |
| CNc1ccc2ccc(OC[C@H]3O[C@@H](n4cnc5c(N)ncnc54)[C@H](O)[C@@H]3O)cc2n1 [I-76] | < 10 nM |
| Nc1ncnc2c1ccn2[C@@H]1O[C@H](COc2ccc3ccc(N4CCOCC4)nc3c2)[C@@H](O)[C@H]1O [I-77] | 100 to 1000 nM |
| Nc1ccc2ccc(OC[C@H]3O[C@H](n4ccc5c(N)ncnc54)[C@H](O)[C@@H]3O)cc2n1 [I-79] | 100 to 1000 nM |
| Nc1ccc2ccc(OC[C@H]3O[C@@H](n4ccc5c(N)ncnc54)[C@H](O)[C@@H]3O)cc2n1 [I-80] | < 10 nM |
| Nc1ncnc2c1ccn2[C@@H]1C[C@H](CCc2ccc3c(OCC4CC4)ccnc3c2)[C@@H](O)[C@H]1O [I-85] | < 10 nM |
